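Step 1: Grow cells in 96-well plates. Step 2: Expose to compound for 48 hours at 5 concentrations. Step 3: Interpolate endpoints linearly; if unreached, use highest concentration. GI50 = concentration required for 50% inhibition of growth.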 The source made the active and inactive calls. No stated cut-off is given here; in the data, active = GI50 up to about 1.1 µM and inactive = higher.
Columns and labels:
Test in all cases: inhibition of tumour cell growth, NCI panel, 48 h
NCI-H522 = test system: NCI-H522
DU-145 = test system: DU-145
SNB-19 = test system: SNB-19
OVCAR-3 = test system: OVCAR-3
COLO 205 = test system: COLO 205
ACHN = test system: ACHN
MDA-MB-231 = test system: MDA-MB-231
TK-10 = test system: TK-10
EKVX = test system: EKVX
U-251 = test system: U-251
SW-620 = test system: SW-620
UO-31 = test system: UO-31
MDA-MB-435 = test system: MDA-MB-435
OVCAR-8 = test system: OVCAR-8
UACC-257 = test system: UACC-257
SF-295 = test system: SF-295
OVCAR-4 = test system: OVCAR-4
OVCAR-5 = test system: OVCAR-5
SR = test system: SR
HOP-62 = test system: HOP-62

Measured: GI50

O=C(/C=C/c1ccccc1)CCC1C(=O)NC(=O)NC1=O
inactive: NCI-H522 > 100 µM | DU-145 > 100 µM | SNB-19 > 100 µM | OVCAR-3 > 100 µM | COLO 205 > 100 µM | ACHN > 100 µM | MDA-MB-231 > 100 µM | TK-10 > 100 µM | EKVX > 100 µM | U-251 > 100 µM | SW-620 > 100 µM | UO-31 > 100 µM | MDA-MB-435 > 100 µM | OVCAR-8 > 100 µM | UACC-257 > 100 µM | SF-295 > 100 µM | OVCAR-4 > 100 µM | OVCAR-5 > 100 µM

Cn1c(=O)cc(NNc2ccc(Br)cc2)[nH]c1=O
inactive: DU-145 6.55 µM | SNB-19 13.6 µM | OVCAR-3 3.99 µM | COLO 205 2.58 µM | ACHN 14 µM | SR 3.43 µM | MDA-MB-231 14.6 µM | TK-10 20.3 µM | EKVX 16.5 µM | U-251 3.05 µM | SW-620 4.5 µM | UO-31 16.4 µM | MDA-MB-435 12.4 µM | OVCAR-8 19.1 µM | UACC-257 15.3 µM | SF-295 13.4 µM | OVCAR-4 16 µM | HOP-62 12.8 µM | OVCAR-5 13.4 µM

CCOc1ccc(/C=C2\NC(=S)N(/C=C3\C(=O)Oc4ccccc4C3=O)C2=O)cc1
inactive: NCI-H522 20.7 µM | DU-145 22.4 µM | SNB-19 22.8 µM | OVCAR-3 21.1 µM | COLO 205 15.2 µM | ACHN 25.5 µM | MDA-MB-231 20.4 µM | TK-10 20.2 µM | EKVX 24.7 µM | U-251 29 µM | SW-620 37.8 µM | UO-31 24.1 µM | MDA-MB-435 28.8 µM | OVCAR-8 19.4 µM | UACC-257 26.6 µM | SF-295 20.4 µM | OVCAR-4 28.1 µM | HOP-62 26.1 µM | OVCAR-5 40.2 µM

COC(=O)C1(Cc2ccccc2)Cc2ccccc2C1=O (stereo not given)
inactive: DU-145 83.4 µM | OVCAR-3 39.3 µM | COLO 205 49.9 µM | ACHN 36.6 µM | SR 23.8 µM | MDA-MB-231 83.6 µM | TK-10 57 µM | EKVX 30.3 µM | U-251 27.7 µM | SW-620 55 µM | UO-31 23.3 µM | MDA-MB-435 22.6 µM | OVCAR-8 50.8 µM | UACC-257 45.8 µM | SF-295 66.8 µM | OVCAR-4 25.4 µM | HOP-62 72.1 µM | OVCAR-5 > 100 µM

Cc1c(O)c(C)c2c(C)cn(C(=O)C(C)(C)C)c2c1C
inactive: NCI-H522 23.7 µM | DU-145 20.8 µM | SNB-19 24.8 µM | OVCAR-3 43.4 µM | COLO 205 16.6 µM | ACHN 14.2 µM | MDA-MB-231 15.2 µM | TK-10 20.5 µM | EKVX 20 µM | U-251 27.3 µM | SW-620 29.5 µM | UO-31 27.9 µM | MDA-MB-435 16.5 µM | OVCAR-8 20.1 µM | SF-295 17.8 µM | OVCAR-4 12.6 µM | HOP-62 17.5 µM | OVCAR-5 30.2 µM

COP(=O)(/C=C/C(NC(=O)C(Cl)(Cl)Cl)c1ccccc1)OC (stereo not given)
inactive: NCI-H522 > 100 µM | DU-145 > 100 µM | SNB-19 > 100 µM | OVCAR-3 > 100 µM | COLO 205 > 100 µM | ACHN > 100 µM | MDA-MB-231 > 100 µM | TK-10 > 100 µM | EKVX > 100 µM | U-251 > 100 µM | SW-620 > 100 µM | UO-31 > 100 µM | MDA-MB-435 > 100 µM | OVCAR-8 > 100 µM | UACC-257 > 100 µM | SF-295 > 100 µM | OVCAR-4 > 100 µM | HOP-62 > 100 µM | OVCAR-5 > 100 µM

CC(=N/NC(=S)N1CCCCC1)/C(C)=N\NC(=S)N1CCCCC1
inactive: NCI-H522 2.09 µM | DU-145 1.61 µM | SNB-19 1.88 µM | OVCAR-3 1.74 µM | COLO 205 1.95 µM | ACHN 1.55 µM | MDA-MB-231 2 µM | TK-10 1.77 µM | EKVX 1.63 µM | U-251 1.97 µM | SW-620 2.14 µM | UO-31 1.59 µM | MDA-MB-435 1.87 µM | OVCAR-8 2.12 µM | UACC-257 1.87 µM | SF-295 1.71 µM | OVCAR-4 1.74 µM | HOP-62 1.79 µM | OVCAR-5 1.78 µM
